Test results from patent publication US8633204B2 (Pfizer Inc., priority 2006, dated 2014).

Columns and labels:
PI3-Kα = PI3-Kα (Mus musculus (Mouse), UniProt P42337); experiment: PI3-Kα Biochemical Assay (fluorescence polarization kinase assay)
Experimental: Compounds of the present invention were evaluated for potency against PI3-Kα using an in vitro kinase assay. PI3-Kα activity is measured in vitro by determining the level of phosphorylation of the substrate PI(4,5)P2. The formation of product PI(3,4,5)P3 is monitored by binding to the Grip1 PH domain in a ligand displacement fluorescence polarization (FP) assay, in which the TAMRA-labeled PI(3,4,5)P3 complexed with Grip1 PH domain is displaced by PI(3,4,5)P3 formed in the PI3-Kα reaction resulting in a decrease in FP signal. Mouse PI3-Kα P110 and P85 subunits were co-expressed in insect cells and co-purified to homogeneity. PI(4,5)P2 were obtained from Cayman. TAMRA-labeled PI(3,4,5)P3 were from Echelon, Grip1 PH domain from Dundee and other reagents were from Sigma.
All assays were performed in a Corning solid black 96-well half area plate using LJL Analyst (Molecular Devices) at room temperature. The assay buffer contained 50 mM HEPES, pH 7.4, 150 mM NaCl, 5 mM DTT, and 0.05% CHAPS. Dry powder PI(4,5)P2 was dissolved in 50 mM TRIS, pH 8 to make 1 mM stock solution. The PI(4,5)P2 stock solution was then diluted in the assay buffer to 60 μM, and sonicated for 30 sec before use. To the assay plate, the following reagents were added in sequence: 10 μL of 60 μM PI(4,5)P2, 5 μL of 4 nM PI3-Kα, 2 μL of compound in 25% DMSO, 3 μL of mixture containing 200 μM ATP and 33 mM MgCl2. The final volume for the reaction was 20 μL. The reaction mixture was incubated at room temperature for 35 min. The reaction was then stopped by 20 μL of 20 mM EDTA. […] The FP signal was allowed to develop for 40 min before reading on a LJL analyst at excitation 535 nm and emission 580 nm.
The percentage of inhibition was calculated based on the following equation % inhibition=[1−(FPcompound−FPmax)/(FPmin−FPmax)]×100, where FPcompound is the FP reading at a given compound concentration, FPmin is the FP signal of the PI3-Kα reaction in the absence of a compound, and FPmax is the background FP signal in the absence of PI3-Kα and a compound. The IC50 was determined by fitting the FP signal vs. compound concentration to a sigmoidal dose response equation using GraphPad Prism curve fitting program.

[1] = tested on: PI3-K in BT20 cells (phosphorylation of AKT at serine 473); experiment: PI3-Kα Cellular Assay (AKT Ser473 phosphorylation ELISA in BT20 cells); assay type: cell-based, human; conditions: Homo sapiens, BT-20, pAKT Ser473 ELISA, 1 hour incubation
Outline: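 Cells seeded overnight in 0.5% FBS, then exposed 1 h at 37 °C to an 11-concentration 1:3 dilution series, in duplicate.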

Sequence of PI3-Kα (P42337 whole entry, the tested form may be a part): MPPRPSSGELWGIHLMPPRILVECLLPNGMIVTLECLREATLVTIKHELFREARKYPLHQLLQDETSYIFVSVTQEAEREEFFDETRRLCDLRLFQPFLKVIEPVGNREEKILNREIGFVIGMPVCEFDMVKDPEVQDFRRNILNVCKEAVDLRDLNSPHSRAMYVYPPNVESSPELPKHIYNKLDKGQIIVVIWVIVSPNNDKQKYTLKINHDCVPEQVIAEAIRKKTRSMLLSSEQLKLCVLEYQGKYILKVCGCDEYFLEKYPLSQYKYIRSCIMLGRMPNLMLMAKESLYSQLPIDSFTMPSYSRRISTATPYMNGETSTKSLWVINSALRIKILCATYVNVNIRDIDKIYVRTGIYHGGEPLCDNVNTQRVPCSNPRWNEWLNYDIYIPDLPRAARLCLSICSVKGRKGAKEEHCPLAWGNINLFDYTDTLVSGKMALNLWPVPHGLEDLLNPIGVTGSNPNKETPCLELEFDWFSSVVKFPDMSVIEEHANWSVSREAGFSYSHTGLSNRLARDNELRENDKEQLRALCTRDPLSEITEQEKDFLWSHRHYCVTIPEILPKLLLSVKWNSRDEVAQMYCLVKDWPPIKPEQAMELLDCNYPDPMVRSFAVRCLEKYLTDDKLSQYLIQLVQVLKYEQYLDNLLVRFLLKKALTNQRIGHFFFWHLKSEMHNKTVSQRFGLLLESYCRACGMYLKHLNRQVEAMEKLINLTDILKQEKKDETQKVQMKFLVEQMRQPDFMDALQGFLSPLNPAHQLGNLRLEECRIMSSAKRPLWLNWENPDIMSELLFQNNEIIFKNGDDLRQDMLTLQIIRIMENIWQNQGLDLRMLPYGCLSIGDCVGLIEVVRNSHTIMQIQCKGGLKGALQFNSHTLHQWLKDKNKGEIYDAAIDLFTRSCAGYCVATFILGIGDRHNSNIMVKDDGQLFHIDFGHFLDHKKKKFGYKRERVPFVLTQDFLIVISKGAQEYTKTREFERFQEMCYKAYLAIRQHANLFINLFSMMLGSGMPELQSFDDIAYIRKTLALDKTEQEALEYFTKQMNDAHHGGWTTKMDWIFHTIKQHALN
Sequence of PI3-Kα (P26450 whole entry partner, the tested form may be a part): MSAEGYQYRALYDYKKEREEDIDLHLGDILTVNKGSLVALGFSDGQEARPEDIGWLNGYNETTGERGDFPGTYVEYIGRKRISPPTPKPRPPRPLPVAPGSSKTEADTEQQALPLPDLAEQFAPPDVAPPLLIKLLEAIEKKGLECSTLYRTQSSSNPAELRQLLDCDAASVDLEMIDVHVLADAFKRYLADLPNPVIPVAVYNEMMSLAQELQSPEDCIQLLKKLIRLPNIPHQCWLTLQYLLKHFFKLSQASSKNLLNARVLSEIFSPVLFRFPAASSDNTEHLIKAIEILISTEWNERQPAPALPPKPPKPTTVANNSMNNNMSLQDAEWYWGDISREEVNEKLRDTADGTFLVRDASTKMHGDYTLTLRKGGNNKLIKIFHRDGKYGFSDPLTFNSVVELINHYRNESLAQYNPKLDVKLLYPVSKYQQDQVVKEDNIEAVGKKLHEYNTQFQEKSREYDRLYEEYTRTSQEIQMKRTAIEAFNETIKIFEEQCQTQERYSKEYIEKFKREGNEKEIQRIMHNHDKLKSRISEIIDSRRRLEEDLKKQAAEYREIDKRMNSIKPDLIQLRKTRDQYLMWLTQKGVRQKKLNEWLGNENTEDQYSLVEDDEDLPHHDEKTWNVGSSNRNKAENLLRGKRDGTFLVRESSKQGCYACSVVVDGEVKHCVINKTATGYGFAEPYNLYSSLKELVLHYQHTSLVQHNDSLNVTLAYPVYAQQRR

IC50 (PI3-Kα) [nM]	IC50 [1] [nM]	inhibition at 10 µM (PI3-Kα; at 10 μM) [%]	inhibition at 50 µM (PI3-Kα; at 50 μM) [%]	SMILES
17	106			C=CCn1c(=O)c(-c2ccc(OC)nc2)cc2c(C)nc(NC)nc21 [Compound 110, 8-allyl-6-(6-methoxypyridin-3-yl)-4-methyl-2-(methylamino)pyrido[2,3-d]pyrimidin-7(8H)-one]
39.1	74.2			Cc1nc(N)nc2c1cc(-c1ccc(Cl)nc1)c(=O)n2C1CCCC1 [Compound 112, 2-amino-6-(6-chloropyridin-3-yl)-8-cyclopentyl-4-methylpyrido[2,3-d]pyrimidin-7(8H)-one]
21	95.2			CNc1nc(C)c2cc(-c3ccc(OC)nc3)c(=O)n(C(C)C)c2n1 [Compound 113, 8-Isopropyl-6-(6-methoxypyridin-3-yl)-4-methyl-2-(methylamino)pyrido[2,3-c]pyrimidin-7(8H)-one]
110	1180			Cc1nc(NCC(C)(C)O)nc2c1cc(-c1cccc(O)c1)c(=O)n2C1CCCC1 [Compound 114, 8-Cyclopentyl-2-(2-hydroxy-2-methylpropylamino)-6-(3-hydroxyphenyl)-4-methylpyrido[2,3-d]-pyrimidin-7(8H)-one]
0.75	3.82			CNc1nc(C)c2cc(-c3cnc4[nH]ccc4c3)c(=O)n(C3CCCC3)c2n1 [Compound 115, 8-cyclopentyl-4-methyl-2-(methylamino)-6-(1H-pyrrolo[2,3-b]pyridin-5-yl)pyrido[2,3-d]pyrimidin-7(8H)-one]
830	5750			COc1ccc(-c2cc3c(C)nc(NCC(C)(C)O)nc3n(C3CCCC3)c2=O)cn1 [Compound 116, 8-Cyclopentyl-2-(2-hydroxy-2-methylpropylamino)-6-(6-methoxypyridin-34)-4-methylpyrido[2,3-d]pyrimidin-7(8H)-one]
	10000	32		CCNc1nc(C)c2cc(CCC(=O)N(CC)CC)c(=O)n(C3CCCC3)c2n1 [Compound 117, 3-[8-cyclopentyl-2-(ethylamino)-methyl-7-oxo-7,8-dihydropyrido[2,3-d]pyrimidin-6-yl]-N,N-diethylpropanamide]
310	5710			CCNc1nc(C)c2cc(CCC(=O)Nc3ncc[nH]3)c(=O)n(C3CCCC3)c2n1 [Compound 119]
42	896			CNc1nc(C)c2cc(/C=C/O)c(=O)n(C3CCCC3)c2n1 [Compound 120, (E)-8-cyclopentyl-6-(2-hydroxyvinyl)-4-methyl-2-(methylamino)pyrido[2,3-d]pyrimidin-7(8H)-one]
	10000		27	CCNc1nc(C)c2cc(CCC(=O)N(C)C)c(=O)n(C3CCCC3)c2n1 [Compound 121, 3-(8-Cyclopentyl-2-(ethylamino)-4-methyl-7-oxo-7,8-dihydropyrido[2,3-d]pyrimidin-6-yl)-N,N-dimethylpropanamide]
68	650			CNc1nc(C)c2cc(C(N)=O)c(=O)n(C3CCCC3)c2n1 [Compound 123, 8-Cyclopentyl-4-methyl-2-(methylamino)-7-oxo-7,8-dihydropyrido[2,3-d]pyrimidine-6-carboxamide]
8	2.58			CNc1nc(C)c2cc(-c3cn[nH]c3)c(=O)n(C3CCCC3)c2n1 [Compound 124, 8-cyclopentyl-4-methyl-2-(methylamino)-6-(1H-pyrazol-4-yl)pyrido[2,3-d]pyrimidin-7(8H)-one]
856	5480			COc1ncccc1-c1cc2c(C)nc(N)nc2n(C2CCCC2)c1=O [Compound 126]
0.48	2.76			Cc1nc(N)nc2c1cc(-c1cnc3[nH]ccc3c1)c(=O)n2C1CCCC1 [Compound 127, 2-amino-8-cyclopentyl-4-methyl-6-(1H-pyrrolo[2,3-b]pyridin-5-yl)pyrido[2,3-d]pyrimidin-7(8H)-one]
275	3530			CNc1nc(C)c2cc(-c3cccnc3OC)c(=O)n(C3CCCC3)c2n1 [Compound 128, 8-cyclopentyl-6-(2-methoxypyridin-3-yl)-4-methyl-2-(methylamino)pyrido[2,3-d]pyrimidin-7(8H)-one]
4	2750			CCNc1nc(C)c2cc(CCCO)c(=O)n(C3CCCC3)c2n1 [Compound 129, 8-Cyclopentyl-2-(ethylamino)-6-(3-hydroxypropyl)-4-methylpyrido[2,3-d]pyrimidin-7(8H)-one]
54	10000			CCNc1nc(C)c2cc(CCC(=O)O)c(=O)n(C3CCCC3)c2n1 [Compound 130, 3-(8-Cyclopentyl-2-(ethylamino)-4-methyl-7-oxo-7,8-dihydropyrido[2,3-d]pyrimidin-6-yl)propanoic acid]
3400	7980			CCNc1nc(C)c2cc(-c3cccnc3N)c(=O)n(C3CCCC3)c2n1 [Compound 131, 6-(2-aminopyridin-3-yl)-8-cyclopentyl-2-(ethylamino)-4-methylpyrido[2,3-d]pyrimidin-7(8H)-one]
5500	10000			CCNc1nc(C)c2cc(CCC(=O)OCC)c(=O)n(C3CCCC3)c2n1 [Compound 132, Ethyl 3-(8-cyclopentyl-2-(ethylamino)-4-methyl-7-oxo-7,8-dihydropyrido[2,3-d]pyrimidin-6-yl)propanoate]
60	603			CNc1nc(C)c2cc(C#N)c(=O)n(C3CCCC3)c2n1 [Compound 133, 2-Methylamino-6-carbonitrile-8-cyclopentyl-4-methylpyrido[2,3-d]pyrimidin-7(8H)-one]
2100	8300			CNc1nc(C)c2cc(-c3ncccc3F)c(=O)n(C3CCCC3)c2n1 [Compound 134, 8-cyclopentyl-6-(3-fluoropyridin-2-yl)-4-methyl-2-(methylamino)pyrido[2,3-d]pyrimidin-7(8H)-one]
1.77	46.1			CCNc1nc(C)c2cc(-c3cnc4[nH]ccc4c3)c(=O)n(C3CCCC3)c2n1 [Compound 135, 8-cyclopentyl-2-(ethylamino)-4-methyl-6-(1H-pyrrolo[2,3-b]pyridin-5-yl)pyrido[2,3-d]pyrimidin-7(8H)-one]
0.989	19			COc1cc(-c2cc3c(C)nc(N)nc3n(C3CCCC3)c2=O)ccc1O [Compound 137, 2-amino-8-cyclopentyl-6-(4-hydroxy-3-methoxyphenyl)-4-methylpyrido[2,3-d]pyrimidin-7(8H)-one]
29.7	146			CNc1nc(C)c2cc(-c3ccc(Cl)nc3)c(=O)n(C3CCCC3)c2n1 [Compound 138, 6-(6-chloropyridin-3-yl)-8-cyclopentyl-4-methyl-2-(methylamino)pyrido[2,3-d]pyrimidin-7(8H)-one]
792	1390			CCNc1nc(C)c2cc(-c3cccc(OC)c3)c(=O)n(C3CCCC3)c2n1 [Compound 142, 8-cyclopentyl-2-(ethylamino)-6-(3-methoxyphenyl)-4-methylpyrido[2,3-d]pyrimidin-7(8H)-one]
244	669			CNc1nc(C)c2cc(-c3cccc(OC)c3)c(=O)n(C3CCCC3)c2n1 [Compound 143, 8-cyclopentyl-6-(3-methoxyphenyl)-4-methyl-2-(methylamino)pyrido[2,3-d]pyrimidin-7(8H)-one]
168	622			COc1cccc(-c2cc3c(C)nc(N)nc3n(C3CCCC3)c2=O)c1 [Compound 145, 2-amino-8-cyclopentyl-6-(3-methoxyphenyl)-4-methylpyrido[2,3-d]pyrimidin-7(8H)-one]
0.731	1.76			CNc1nc(C)c2cc(-c3cccc(O)c3)c(=O)n(C3CCCC3)c2n1 [Compound 146, 8-cyclopentyl-6-(3-hydroxyphenyl)-4-methyl-2-(methylamino)pyrido[2,3-d]pyrimidin-7(8H)-one]
0.524	4.84			Cc1nc(N)nc2c1cc(-c1cccc(O)c1)c(=O)n2C1CCCC1 [Compound 147, 2-Amino-8-cyclopentyl-6-(3-hydroxyphenyl)-4-methylpyrido[2,3-d]pyrimidin-7(8H)-one]
4.78	14.7			CNc1nc(C)c2cc(-c3cccc(CO)c3)c(=O)n(C3CCCC3)c2n1 [Compound 148, 8-Cyclopentyl-6-(3-(hydroxymethyl)phenyl)-4-methyl-2-(methylamino)pyrido[2,3-d]pyrimidin-7(8H)-one]
